Source: US11339161B2, “Triazolo pyridines as modulators of gamma-secretase” (Boehringer Ingelheim International GmbH, priority 2017, dated 2022)
Read-outs that look alike come from different tables or passages of the source.

Experiments:
KDR (VEGFR2) = KDR (VEGFR2) (Homo sapiens, UniProt P35968); experiment: Z'-LYTE SelectScreen biochemical kinase assay KDR (VEGFR2)
Excerpt: (§1) Thermo Fisher Scientific SelectScreen™ Biochemical Kinase Profiling Service Z′-LYTE™ Screening Protocol and Assay Conditions Assay Theory
(§2) The […] biochemical assay employs a fluorescence-based, coupled-enzyme format and is based on the differential sensitivity of phosphorylated and non-phosphorylated peptides to proteolytic cleavage. The peptide substrate is labeled with two fluorophores—one at each end—that make up a FRET pair. In the primary reaction, the kinase transfers the gamma-phosphate of ATP to a single tyrosine, serine or threonine residue in a synthetic FRET-peptide. In the secondary reaction, a site-specific protease recognizes and cleaves non-phosphorylated FRET-peptides. Phosphorylation of FRET-peptides suppresses cleavage by the Development Reagent. Cleavage disrupts FRET between the donor (i.e., coumarin) and acceptor (i.e., fluorescein) fluorophores on the FRET-peptide, whereas uncleaved, phosphorylated FRET-peptides maintain FRET. A ratiometric method, which calculates the ratio (Emission Ratio=Coumarin emission (445 nm)/Fluorescein emission (520 nm)) of donor emission to acceptor emission after excitation of the donor fluorophore at 400 nm, is used to quantitate reaction progress, as shown in the equation below. A significant benefit of this ratiometric method for quantitating reaction progress is the elimination of well-to-well variations in FRET-peptide concentration and signal intensities. As a result, the assay yields very high Z′-factor values (>0.7) at a low percent phosphorylation. Both cleaved and uncleaved FRET-peptides contribute to the fluorescence signals and therefore to the Emission Ratio. The extent of phosphorylation of the FRET-peptide can be calculated from the Emission Ratio. The Emission Ratio will remain low if the FRET-peptide is phosphorylated (i.e., no kinase inhibition) and will be high if the FRET-peptide is non-phosphorylated (i.e., kinase inhibition).
(§3) The Test Compounds are screened in 1% DMSO (final) in the well. For 10 point titrations, 3-fold serial dilutions are conducted from the starting concentration of the customer's choosing.
(§4) All Peptide/Kinase Mixtures are diluted to a 2× working concentration in the appropriate Kinase Buffer (see section Kinase Specific Assay Conditions for a complete description).
(§5) All ATP Solutions are diluted to a 4× working concentration in Kinase Buffer (50 mM HEPES pH 7.5, 0.01% BRIJ-35, 10 mM MgCl2, 1 mM EGTA). ATP Km apparent is previously determined using a Z″-LYTE assay.
(§6) The Development Reagent is diluted in Development Buffer (see section Kinase-Specific Assay Conditions—Direct and Cascade for a complete description).
(§7) Bar-coded Corning, low volume NBS, black 384-well plate (Corning Cat. #4514) • 1. 100 nL—100× Test Compound in 100% DMSO • 2. 2.4 μL—Kinase buffer • 3. 5 μL—2× Peptide/Kinase Mixture • 4. 2.5 μL—4×ATP Solution • 5. 30—second plate shake • 6. 60—minute Kinase Reaction incubation at room temperature • 7. 5 μL—Development Reagent Solution • 8. 30—second plate shake • 9. 60—minute Development Reaction incubation at room temperature • 10. Read on fluorescence plate reader and analyze the data Z′-LYTE Assay Controls
(§8) SelectScreen Kinase Profiling Service uses XLfit from IDBS. The dose response curve is curve fit to model number 205 (sigmoidal dose-response model).
The 2×KDR (VEGFR2)/Tyr 01 mixture is prepared in 50 mM HEPES pH 7.5, 0.01% BRIJ-35, 10 mM MgCl2, 1 mM EGTA. The final 10 μL Kinase Reaction consists of 1-30 ng KDR (VEGFR2) and 2 μM Tyr 01 in 50 mM HEPES pH 7.5, 0.01% BRIJ-35, 10 mM MgCl2, 1 mM EGTA. After the 1 hour Kinase Reaction incubation, 5 μL of a 1:256 dilution of Development Reagent B is added.

AURKA (Aurora A) = target: T1, AURKA (Aurora A) (Homo sapiens, UniProt O14965); experiment: Z'-LYTE SelectScreen biochemical kinase assay AURKA (Aurora A)
T1 sequence (O14965 1-403): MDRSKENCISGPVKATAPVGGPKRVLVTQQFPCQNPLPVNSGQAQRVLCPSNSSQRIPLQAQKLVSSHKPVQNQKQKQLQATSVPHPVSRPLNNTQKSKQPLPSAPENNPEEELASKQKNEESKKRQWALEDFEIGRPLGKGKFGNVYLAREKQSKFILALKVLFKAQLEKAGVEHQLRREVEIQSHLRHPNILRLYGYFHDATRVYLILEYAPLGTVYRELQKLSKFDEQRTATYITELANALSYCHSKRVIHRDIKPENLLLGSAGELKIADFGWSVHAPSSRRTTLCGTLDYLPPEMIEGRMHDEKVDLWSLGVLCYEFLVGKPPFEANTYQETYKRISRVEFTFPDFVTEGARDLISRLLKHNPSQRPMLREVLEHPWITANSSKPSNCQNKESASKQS
Excerpt: as §1, §2, §3, §4, §5, §6, §7, §8
The 2×AURKA (Aurora A)/Ser/Thr 01 mixture is prepared in 50 mM HEPES pH 7.5, 0.01% BRIJ-35, 10 mM MgCl2, 1 mM EGTA. The final 10 μL Kinase Reaction consists of 0.91-8.56 ng AURKA (Aurora A) and 2 μM Ser/Thr 01 in 50 mM HEPES pH 7.5, 0.01% BRIJ-35, 10 mM MgCl2, 1 mM EGTA. After the 1 hour Kinase Reaction incubation, 5 μL of a 1:4096 dilution of Development Reagent A is added.

MAP4K4 (HGK) = MAP4K4 (HGK) (Homo sapiens, UniProt O95819); experiment: Z'-LYTE SelectScreen biochemical kinase assay MAP4K4 (HGK)
Sequence of MAP4K4 (HGK) (O95819 whole entry): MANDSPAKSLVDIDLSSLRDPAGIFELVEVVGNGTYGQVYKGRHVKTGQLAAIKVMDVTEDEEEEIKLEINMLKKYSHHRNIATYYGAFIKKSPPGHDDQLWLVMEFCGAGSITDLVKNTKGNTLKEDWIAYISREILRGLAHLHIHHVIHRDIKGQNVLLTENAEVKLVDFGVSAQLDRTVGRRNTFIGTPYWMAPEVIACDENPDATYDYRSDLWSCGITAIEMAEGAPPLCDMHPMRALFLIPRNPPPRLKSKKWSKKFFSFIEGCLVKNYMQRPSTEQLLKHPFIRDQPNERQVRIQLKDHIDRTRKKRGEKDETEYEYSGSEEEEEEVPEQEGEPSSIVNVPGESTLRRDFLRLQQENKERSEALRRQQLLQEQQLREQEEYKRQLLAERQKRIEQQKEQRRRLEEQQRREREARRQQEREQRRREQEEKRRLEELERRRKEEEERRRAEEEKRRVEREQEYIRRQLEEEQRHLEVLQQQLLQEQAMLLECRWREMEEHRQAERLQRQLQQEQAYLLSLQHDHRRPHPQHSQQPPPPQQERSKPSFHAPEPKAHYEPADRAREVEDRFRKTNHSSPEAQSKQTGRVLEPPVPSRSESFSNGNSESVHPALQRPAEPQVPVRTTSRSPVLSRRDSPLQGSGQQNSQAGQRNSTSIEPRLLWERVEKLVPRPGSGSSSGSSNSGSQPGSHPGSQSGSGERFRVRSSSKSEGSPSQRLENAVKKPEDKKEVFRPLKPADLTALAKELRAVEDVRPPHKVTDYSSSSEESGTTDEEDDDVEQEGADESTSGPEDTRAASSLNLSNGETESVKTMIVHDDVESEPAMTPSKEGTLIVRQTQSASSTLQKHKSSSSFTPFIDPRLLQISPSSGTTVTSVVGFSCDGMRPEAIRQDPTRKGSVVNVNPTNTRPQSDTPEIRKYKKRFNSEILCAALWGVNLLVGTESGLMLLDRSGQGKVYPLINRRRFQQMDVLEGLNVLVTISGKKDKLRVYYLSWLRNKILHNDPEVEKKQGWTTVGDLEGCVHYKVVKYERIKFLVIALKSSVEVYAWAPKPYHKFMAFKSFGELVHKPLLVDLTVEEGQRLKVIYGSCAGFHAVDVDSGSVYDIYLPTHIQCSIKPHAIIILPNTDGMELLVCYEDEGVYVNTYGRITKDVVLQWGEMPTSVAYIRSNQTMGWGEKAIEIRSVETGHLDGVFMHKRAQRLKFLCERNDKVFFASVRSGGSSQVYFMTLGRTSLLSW
Excerpt: as §1, §2, §3, §4, §5, §6, §7, §8
The 2×MAP4K4 (HGK)/Ser/Thr 07 mixture is prepared in 50 mM HEPES pH 7.5, 0.01% BRIJ-35, 10 mM MgCl2, 1 mM EGTA. The final 10 μL Kinase Reaction consists of 0.36-1.82 ng MAP4K4 (HGK) and 2 μM Ser/Thr 07 in 50 mM HEPES pH 7.5, 0.01% BRIJ-35, 10 mM MgCl2, 1 mM EGTA. After the 1 hour Kinase Reaction incubation, 5 μL of a 1:45000 dilution of Development Reagent A is added.

[1] = 10 μmolar compound concentration, ATP at Km app, read-out: KDR (VEGFR2) inhibition
[2] = 10 μmolar compound concentration, ATP at Km app, read-out: AURKA (Aurora A) inhibition
[3] = 10 μmolar compound concentration, ATP at Km app, read-out: MAP4K4 (HGK) inhibition
[4] = read-out: % Inhibition mean KDR (VEGFR2)
[5] = read-out: % Inhibition mean AURKA (Aurora A)
[6] = read-out: % Inhibition mean MAP4K4 (HGK)

Sequence of KDR (VEGFR2) (P35968 20-1356): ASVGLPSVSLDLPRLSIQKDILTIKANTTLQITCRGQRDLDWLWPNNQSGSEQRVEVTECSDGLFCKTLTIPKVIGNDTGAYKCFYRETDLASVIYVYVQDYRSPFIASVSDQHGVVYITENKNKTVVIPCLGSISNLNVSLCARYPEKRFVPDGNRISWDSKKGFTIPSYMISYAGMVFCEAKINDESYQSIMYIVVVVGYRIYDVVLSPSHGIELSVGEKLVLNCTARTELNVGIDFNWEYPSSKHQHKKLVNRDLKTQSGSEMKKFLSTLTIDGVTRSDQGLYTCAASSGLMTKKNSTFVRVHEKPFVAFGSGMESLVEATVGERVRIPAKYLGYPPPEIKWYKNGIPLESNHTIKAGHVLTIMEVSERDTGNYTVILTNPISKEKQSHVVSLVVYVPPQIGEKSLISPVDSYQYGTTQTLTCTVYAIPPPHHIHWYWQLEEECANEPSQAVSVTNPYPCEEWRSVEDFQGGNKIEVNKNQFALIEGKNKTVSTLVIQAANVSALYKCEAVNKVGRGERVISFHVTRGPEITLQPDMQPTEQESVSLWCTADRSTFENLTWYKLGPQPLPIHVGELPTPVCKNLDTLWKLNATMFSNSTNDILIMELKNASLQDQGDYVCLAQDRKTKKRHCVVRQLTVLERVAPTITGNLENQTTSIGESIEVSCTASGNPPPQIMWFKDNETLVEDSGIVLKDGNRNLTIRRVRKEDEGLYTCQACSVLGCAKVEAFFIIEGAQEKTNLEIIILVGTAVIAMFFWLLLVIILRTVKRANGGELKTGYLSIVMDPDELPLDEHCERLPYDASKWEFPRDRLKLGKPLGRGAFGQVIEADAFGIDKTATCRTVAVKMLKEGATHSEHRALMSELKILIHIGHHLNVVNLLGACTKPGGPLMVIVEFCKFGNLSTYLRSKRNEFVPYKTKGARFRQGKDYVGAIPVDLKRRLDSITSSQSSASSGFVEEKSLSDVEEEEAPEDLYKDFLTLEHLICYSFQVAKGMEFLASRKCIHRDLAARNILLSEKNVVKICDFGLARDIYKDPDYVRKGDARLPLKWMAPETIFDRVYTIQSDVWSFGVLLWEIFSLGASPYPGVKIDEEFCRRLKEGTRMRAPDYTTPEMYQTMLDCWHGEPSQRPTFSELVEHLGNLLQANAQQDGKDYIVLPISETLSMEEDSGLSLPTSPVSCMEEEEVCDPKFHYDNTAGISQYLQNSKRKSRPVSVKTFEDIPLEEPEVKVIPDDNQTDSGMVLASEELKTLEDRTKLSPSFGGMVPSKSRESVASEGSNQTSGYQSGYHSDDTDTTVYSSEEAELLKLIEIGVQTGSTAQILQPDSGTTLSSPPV

SMILES	inhibition at 10 µM (KDR (VEGFR2); [1]) [%]	inhibition at 10 µM (KDR (VEGFR2); read-out: % Inhibition mean) [%]	inhibition at 10 µM (AURKA (Aurora A); [2]) [%]	inhibition at 10 µM (AURKA (Aurora A); read-out: % Inhibition mean) [%]	inhibition at 10 µM (MAP4K4 (HGK); [3]) [%]	inhibition at 10 µM (MAP4K4 (HGK); read-out: % Inhibition mean) [%]	inhibition at 10 µM (KDR (VEGFR2); [4]) [%]	inhibition at 10 µM (AURKA (Aurora A); [5]) [%]	inhibition at 10 µM (MAP4K4 (HGK); [6]) [%]
CC1(C)C(=O)Nc2ccc(Nc3nc4c(-c5cccc(F)c5)cccn4n3)cc21 [Cpd. 263 in WO09155551, reference compound]	> 80	99	> 80	99	> 80	98	–	–	–
Fc1cccc(-c2cccn3nc(Nc4ccc5[nH]cnc5c4)nc23)c1 [Cpd. 293 in WO09155551, reference compound]	> 80	98	> 80	89	> 80	95	–	–	–
CC1(C)NC(=O)c2ccc(Nc3nc4c(-c5cccc(F)c5)cccn4n3)cc21 [Cpd. 302 in WO09155551, reference compound]	> 80	101	> 80	98	> 80	99	–	–	–
Cc1cc(F)ccc1-c1cccn2nc(Nc3ccc4c(cnn4C)c3)nc12 [Example 9, [8-(4-fluoro-2-methyl-phenyl)-[1,2,4]triazolo[1,5-a]pyridine-2-yl]-(1-methyl-1H-indazol-5-yl)-amine]	< 40	–	40 to 80	–	< 40	–	30	57	6
Cc1cc(F)ccc1-c1cccn2nc(NC3CCc4c(cnn4C)C3)nc12 (stereo not drawn) [Example 10, [8-(4-fluoro-2-methyl-phenyl)-[1,2,4]triazolo[1,5-a]pyridine-2-yl]-(1-methyl-4,5,6,7-tetrahydro-1H-indazol-5-yl)-amine]	< 40	–	< 40	–	< 40	–	-2	4	37
Cc1cc(F)ccc1-c1cccn2nc(NC3CCc4cnn(C)c4C3)nc12 (stereo not drawn) [Example 40, [8-(4-Fluoro-2-methyl-phenyl)-[1,2,4]triazolo[1,5-a]pyridine-2-yl]-(1-methyl-4,5,6,7-tetrahydro-1H-indazol-6-yl)-amine]	< 40	–	< 40	–	40 to 80	–	-10	13	45
